Assay results taken from article PMC12238723, “Phase I Clinical Trial of CVL218, a Novel PARP1/2 Inhibitor, in Patients with Advanced Solid Tumors” (MedComm, 2025).

Tested on: patients with advanced solid tumors
Experiment: Treatment-related adverse events (CTCAE v5.0), phase I dose escalation
Type: in vivo
Source text: This study was a single‐arm, dose‐escalation phase I trial conducted in Sun Yat‐sen University Cancer Center in China. This study assessed CVL218 in patients with histologically or cytologically confirmed advanced solid tumors who were in PD after standard therapeutic regimens or lacked standard treatment options. Inclusion criteria included: age 18–75 years; with at least one measurable and evaluable target lesion per Response Evaluation Criteria in Solid Tumors 1.1 (RECIST 1.1); ECOG performance status of 0 or 1; adequate hematological, renal, cardiac, and hepatic functions and a life expectancy ≥12 weeks. Key exclusion criteria included prior usage of PARP inhibitors; allergic to the research drug or its components; with active, unstable systemic diseases or active, uncontrolled infection; a history of other malignancies within 5 years, and pregnant or lactating women.
CVL218 was administered orally, and this dose‐escalation trial included nine dose levels: 100 mg QD (50 mg BID), 200 mg QD (100 mg BID), 400 mg QD (200 mg BID), 700 mg QD (350 mg BID), 1000 mg QD (500 mg BID), 1200 mg QD (600 mg BID), 1400 mg QD (700 mg BID), 1700 mg QD (850 mg BID), and 2000 mg QD (1000 mg BID). Patients enrolled in the study received a single oral dose on the first day, followed by continuous multiple dosing (twice a day taking 12 h apart) after 72 h, with the treatment cycle lasting 4 weeks. The period during which patients received a single dose is designated as cycle 0 (C0), lasting 72 h. After this period, patients begin multiple dosing, referred to as cycle 1 (C1). An initial accelerated titration design was employed for the three lowest dose groups, and the “3+3” design was applied starting with the 300 mg BID cohort.
The primary objectives were to assess safety and tolerability as well as to determine the MTD, DLT, and dose recommended for further study. DLT was defined as any of the following events occurring during cycle 0 (including 72 h wash‐out period after a single dose) and cycle 1 per Common Terminology Criteria for Adverse Events (CTCAE) version 5.0: grade 4 anemia; grade 4 neutropenia; grade 3 neutropenia with fever ≥38.5°C; grade 4 thrombocytopenia; grade 3 thrombocytopenia associated with bleeding; grade ≥2 neurotoxicity; any other grade ≥3 nonhematological toxicities (excluding alopecia). The secondary objectives were to assess the PK and preliminary efficacy of CVL218.
Subjects who received at least one dose of CVL218 with postadministration safety records were included in safety analysis set. Subjects who received at least one dose of CVL218 with at least one evaluable PK parameter were included in PK analysis set. Per‐protocol set were used for efficacy analysis. Descriptive statistics of safety were presented per CTCAE v5.0. The PK parameters T max and T 1/2 were shown as the median (min, max) and mean ± SD, respectively. A two‐sided p < 0.05 was considered to indicate statistical significance. Statistical analysis was performed by using GraphPad prism 8.0.2 and R‐4.3.3.

CNCc1ccc(-c2cc3cc(F)cc(C(N)=O)c3o2)cc1.Cl [CVL218]
0 n (%): Abdominal distension (600 mg BID, ≥G3) | Abdominal pain (600 mg BID, ≥G3) | Abdominal pain upper (600 mg BID, ≥G3) | Amylase increased (600 mg BID, ≥G3) | Anemia (600 mg BID, ≥G3) | Asthenia (600 mg BID, ≥G3) | Blood system disorders (600 mg BID, ≥G3) | Blood triglycerides increased (600 mg BID, ≥G3) | Cardiac disorders (600 mg BID, ≥G3) | Chest discomfort (600 mg BID, ≥G3) | Constipation (600 mg BID, ≥G3) | Decreased appetite (600 mg BID, ≥G3) | Diarrhea (600 mg BID, ≥G3) | Dizziness (600 mg BID, ≥G3) | Erectile dysfunction (600 mg BID, ≥G3) | Gastrointestinal disorders (600 mg BID, ≥G3) | General disorders (600 mg BID, ≥G3) | Gingival bleeding (600 mg BID, ≥G3) | Granulocyte count increased (600 mg BID, ≥G3) | Headache (600 mg BID, ≥G3) | Hypoalbuminemia (600 mg BID, ≥G3) | Infusion site pain (600 mg BID, ≥G3) | Limb discomfort (600 mg BID, ≥G3) | Lipase increased (600 mg BID, ≥G3) | Metabolic disorders (600 mg BID, ≥G3) | Musculoskeletal discomfort (600 mg BID, ≥G3) | Musculoskeletal disorders (600 mg BID, ≥G3) | Nausea (600 mg BID, ≥G3) | Nervous system disorders (600 mg BID, ≥G3) | Neutrophil count decreased (600 mg BID, ≥G3) | Neutrophil count increased (600 mg BID, ≥G3) | Palpitations (600 mg BID, ≥G3) | Protein urine present (600 mg BID, ≥G3) | Proteinuria (600 mg BID, ≥G3) | Rash (600 mg BID, ≥G3) | Renal & urinary disorders (600 mg BID, ≥G3) | Renal failure (600 mg BID, ≥G3) | Reproductive disorders (600 mg BID, ≥G3) | Skin disorders (600 mg BID, ≥G3) | Urinary occult blood positive (600 mg BID, ≥G3) | Vomiting (600 mg BID, ≥G3) | WBC count decreased (600 mg BID, ≥G3) | WBC count increased (600 mg BID, ≥G3) | Infusion site pain (700 mg BID, ALL) | WBC count increased (700 mg BID, ALL) | ALT increased (700 mg BID, ≥G3) | AST increased (700 mg BID, ≥G3) | Abdominal distension (700 mg BID, ≥G3) | Abdominal pain (700 mg BID, ≥G3) | Abdominal pain upper (700 mg BID, ≥G3) | Amylase increased (700 mg BID, ≥G3) | Anemia (700 mg BID, ≥G3) | Any AE related to study drug (700 mg BID, ≥G3) | Asthenia (700 mg BID, ≥G3) | Blood creatinine increased (700 mg BID, ≥G3) | Blood system disorders (700 mg BID, ≥G3) | Blood triglycerides increased (700 mg BID, ≥G3) | Blood urea increased (700 mg BID, ≥G3) | Cardiac disorders (700 mg BID, ≥G3) | Chest discomfort (700 mg BID, ≥G3) | Constipation (700 mg BID, ≥G3) | Decreased appetite (700 mg BID, ≥G3) | Diarrhea (700 mg BID, ≥G3) | Dizziness (700 mg BID, ≥G3) | Erectile dysfunction (700 mg BID, ≥G3) | Gastrointestinal disorders (700 mg BID, ≥G3) | General disorders (700 mg BID, ≥G3) | Gingival bleeding (700 mg BID, ≥G3) | Granulocyte count increased (700 mg BID, ≥G3) | Headache (700 mg BID, ≥G3) | Hypoalbuminemia (700 mg BID, ≥G3) | Infusion site pain (700 mg BID, ≥G3) | Laboratory test disorders (700 mg BID, ≥G3) | Limb discomfort (700 mg BID, ≥G3) | Lipase increased (700 mg BID, ≥G3) | Metabolic disorders (700 mg BID, ≥G3) | Musculoskeletal discomfort (700 mg BID, ≥G3) | Musculoskeletal disorders (700 mg BID, ≥G3) | Nausea (700 mg BID, ≥G3) | Nervous system disorders (700 mg BID, ≥G3) | Neutrophil count decreased (700 mg BID, ≥G3) | Neutrophil count increased (700 mg BID, ≥G3) | Palpitations (700 mg BID, ≥G3) | Protein urine present (700 mg BID, ≥G3) | Proteinuria (700 mg BID, ≥G3) | Rash (700 mg BID, ≥G3) | Renal & urinary disorders (700 mg BID, ≥G3) | Renal failure (700 mg BID, ≥G3) | Reproductive disorders (700 mg BID, ≥G3) | Skin disorders (700 mg BID, ≥G3) | Urinary occult blood positive (700 mg BID, ≥G3) | Vomiting (700 mg BID, ≥G3) | WBC count decreased (700 mg BID, ≥G3) | WBC count increased (700 mg BID, ≥G3) | Infusion site pain (850 mg BID, ALL) | ALT increased (850 mg BID, ≥G3) | AST increased (850 mg BID, ≥G3) | Abdominal distension (850 mg BID, ≥G3) | Abdominal pain upper (850 mg BID, ≥G3) | Amylase increased (850 mg BID, ≥G3) | Anemia (850 mg BID, ≥G3) | Asthenia (850 mg BID, ≥G3) | Blood system disorders (850 mg BID, ≥G3) | Blood triglycerides increased (850 mg BID, ≥G3) | Blood urea increased (850 mg BID, ≥G3) | Cardiac disorders (850 mg BID, ≥G3) | Chest discomfort (850 mg BID, ≥G3) | Constipation (850 mg BID, ≥G3) | Decreased appetite (850 mg BID, ≥G3) | Diarrhea (850 mg BID, ≥G3) | Dizziness (850 mg BID, ≥G3) | Erectile dysfunction (850 mg BID, ≥G3) | General disorders (850 mg BID, ≥G3) | Gingival bleeding (850 mg BID, ≥G3) | Granulocyte count increased (850 mg BID, ≥G3) | Headache (850 mg BID, ≥G3) | Hypoalbuminemia (850 mg BID, ≥G3) | Infusion site pain (850 mg BID, ≥G3) | Limb discomfort (850 mg BID, ≥G3) | Lipase increased (850 mg BID, ≥G3) | Metabolic disorders (850 mg BID, ≥G3)
1 (25.0) n (%): Any AE related to study drug (600 mg BID, ≥G3)
1 (20) n (%): Abdominal pain (850 mg BID, ≥G3) | Gastrointestinal disorders (850 mg BID, ≥G3)
2 (40.0) n (%): Any AE related to study drug (850 mg BID, ≥G3) | Blood creatinine increased (850 mg BID, ≥G3) | Laboratory test disorders (850 mg BID, ≥G3)
1 (20.0) n (%): WBC count increased (850 mg BID, ALL)
